Measurements as given in article PMC10434227 (Microbiology Spectrum, 2023).
Where a name gives a salt, the structure may show the parent alone. Read-outs that look alike come from different tables or passages of the source.

Key:
A549 cells [1] = test system: A549 cells
A549 cells [2] = test system: A549 cells; remark: listed apart in the source
[3] = test system: MPXV USA-2003 (NR-2500) clade II; assay: microbe, parasite or virus in culture; type: cell-based, monkeypox virus (MPXV)
rVACV Nluc/GFP = assay: microbe, parasite or virus in culture; type: cell-based, vaccinia virus (VACV)
rVACV Nluc/Scarlet = assay: microbe, parasite or virus in culture; type: cell-based, vaccinia virus (VACV)
in vitro [4] = conditions: human
in vitro [5] = conditions: human; remark: listed apart in the source
[6] = read-out: EC50 FP (GFP fluorescence)
[7] = read-out: EC50 FP (Scarlet fluorescence)
[8] = Monkeypox virus, A549, read-out: EC50 against MPXV
[9] = Orthopoxvirus vaccinia, A549, read-out: EC50 FP (GFP fluorescence)
[10] = Orthopoxvirus vaccinia, A549, read-out: EC50 Nluc
[11] = Orthopoxvirus vaccinia, A549, read-out: EC50 FP (Scarlet fluorescence)

Compound	CC50 (A549 cells [1]) [nM]	CC50 (A549 cells [2]) [nM]	EC50 ([3]; read-out: EC50 against MPXV) [nM]	EC50 (rVACV Nluc/GFP; [6]) [nM]	EC50 (rVACV Nluc/GFP; read-out: EC50 Nluc) [nM]	EC50 (rVACV Nluc/Scarlet; [7]) [nM]	EC50 (rVACV Nluc/Scarlet; read-out: EC50 Nluc) [nM]	EC50 [3, 8] [nM]	EC50 (rVACV Nluc/GFP; [9]) [nM]	EC50 (rVACV Nluc/GFP; [10]) [nM]	EC50 (rVACV Nluc/Scarlet; [11]) [nM]	EC50 (rVACV Nluc/Scarlet; [10]) [nM]	CC50 (in vitro [4]) [nM]	CC50 (in vitro [5]) [nM]
Fc1ccc(CNc2ncnc3ccc(F)cc23)cc1 [Spautin-1, spautin-1]	8000	> 50000	3210	4430	2800	6780	3040							
FC(F)(F)c1ccc(/C=C/c2nc(COc3ccc(CCCCn4ccnn4)cc3)co2)cc1 [Mubritinib, mubritinib]						93		38	65	33	50	37		
Cc1c(-c2ccc(-c3ccccc3F)cc2)nc2ccc(F)cc2c1C(=O)O [Brequinar, brequinar sodium salt hydrate]					40			160	180	< 40	120	110	> 50000	> 50000
C=C(C)[C@H]1Cc2c(ccc3c2O[C@@H]2COc4cc(OC)c(OC)cc4[C@@H]2C3=O)O1 [Rotenone, rotenone]								7	10	7	15	8		
COc1c(C)c2c(c(O)c1C/C=C(\C)CCC(=O)OCCN1CCOCC1)C(=O)OC2 [Mycophenolate mofetil, mycophenolate mofetil]			1960		930			1060	870	800	1200	1040	> 150000	> 150000
NCC(=O)Nc1ccc(-n2nc(C(F)(F)F)cc2-c2ccc3c(ccc4ccccc43)c2)cc1 [Osu-03012, OSU-03012]					2650			4390	3290	2950	2320	2590		
NC(=O)c1[nH]nc([C@@H]2O[C@H](CO)[C@@H](O)[C@H]2O)c1O [Pyrazofurin, pyrazofurin]						270		3400	530	240	370	110	> 50000	> 50000
CC(C)[C@@H]1NC(=O)[C@H](C)OC(=O)[C@@H](C(C)C)NC(=O)[C@@H](C(C)C)OC(=O)[C@H](C(C)C)NC(=O)[C@H](C)OC(=O)[C@@H](C(C)C)NC(=O)[C@@H](C(C)C)OC(=O)[C@H](C(C)C)NC(=O)[C@H](C)OC(=O)[C@@H](C(C)C)NC(=O)[C@@H](C(C)C)OC1=O [Valinomycin, valinomycin]								1	3	2	3	2		
CC[C@@]1([C@@H]2O[C@@H]([C@H]3O[C@@](O)(CO)[C@H](C)C[C@@H]3C)C[C@@H]2C)CC[C@H]([C@]2(C)CC[C@]3(C[C@H](O)[C@@H](C)[C@@H]([C@@H](C)[C@@H](OC)[C@H](C)C(=O)O)O3)O2)O1 [Monensin, monensin sodium salt]								50	80	130	70	80	> 50000	> 50000
2′,3′,5′-triacetyl-6-azauridine [Azaribine]	> 150000	> 150000		1030	1130	1320	1410							
O=c1cnn([C@@H]2O[C@H](CO)[C@@H](O)[C@H]2O)c(=O)[nH]1 [Azauridine, 6-azauridine]					1580	640		2390	1740	1590	840	1510	> 50000	> 50000
